Measured values as given in patent publication US10653685B2, “Pharmaceutical compositions and methods for the treatment of hypoxia-related diseases” (priority 2015, dated 2020).

Experiments:
rat primary heart cells [1] = assay: CK released by rat primary heart cells under hypoxia; format: cell-based; details: hypoxia 3 hours
Description: (§1) Sprague Dawley rat hearts (1-2 days old) were sterilely removed and bathed three times in Ca^++ and Mg^++—free PBS to remove excess blood cells. The hearts were minced to small fragments and then agitated in a proteolytic enzyme-RDB solution (Life Science research, Inst., Nes Ziona, Israel) prepared from a fig tree extract as described previously (Brik et al., Basic Res. Cardiol. 85:237-246, 1990), Shneyvays et al., J Mol Cell Cardiol. 33:1249-1261, 2001). The RDB-solution was then diluted 1:200 in PBS at 25° C. for a few cycles of 10 min each. The supernatant suspension containing dissociated cells, to which medium containing 10% horse serum was added, was centrifuged at 500 g for 5 min. After centrifugation, the supernatant phase was discarded, and cells were re-suspended in Dulbecco's modified Eagle medium supplemented with 10% heat-inactivated horse serum and 0.5% chick embryo extract. Cell suspensions were diluted to 1×10^6 cells/ml, and […] samples were placed in 24 well plates (4 plates) collagen/gelatin coated plastic culture dishes. […] The day after, Cells were washed to remove dead cells, and growth medium was replaced, as well as every 2 days and before experiment initiation, this time with glucose-free PBS. The experiments were then performed in vitro on these cardiomyocyte cultures after 5 days following the day of procedure beginning. Right before Hypoxia experiments, cultures wells were incubated in a humidified atmosphere incubator of 5% CO2 and 95% air at 37° C. for 30 minute steady state.
(§2) Approximately 3×10^5 cardiomyocytes/well from neonatal rat hearts were cultured with glucose-free PBS and exposed to hypoxia (oxygen and glucose deprivation) for 180 min. using a procedure essentially as described by O. Golan et al. (Biochemical pharmacology, 81 (2011), pp. 1219-1227)
(§3) In brief, Hypoxia was performed in a closed chamber by replacement of air with 100% Argon. During hypoxia Oxygen levels in the N2 atmosphere was below 1%. And after 180 min. of hypoxia, the pO2 in the PBS was <0.4 Torr. Hypoxic stress injury was determined based on the activity of lactate dehydrogenase (LDH) and creatine kinase (CK) released from the cells, at the end of 3 hr. hypoxic phase, and consequently after additional 2 hr. of reoxygenation.
For both LDH and CK measurements, 25 μL aliquots of each well incubated for 180 min under hypoxia, were transfer to clean 24 wells trays, which were placed within the automatic spectrophotometer and the product of the enzyme activity was measured through a wavelength of 340 nm at 30° C., under shaking. […]
Creatine Kinase (CK) activity was determined within the cardiac cell medium (PBS) using CK-NAC Reagent (Creatine kinase, activated by N-acetyl cysteine) from Thermo Fisher Scientific Inc. Middletown, Va. […]

rat primary heart cells [2] = assay: LDH released by rat primary heart cells under hypoxia; format: cell-based; details: hypoxia 3 hours
Description: as §1, §2, §3
For both LDH and CK measurements, 25 μL aliquots of each well incubated for 180 min under hypoxia, were transfer to clean 24 wells trays, which were placed within the automatic spectrophotometer and the product of the enzyme activity was measured through a wavelength of 340 nm at 30° C., under shaking. Results were expressed relatively to the control.
Lactate dehydrogenase (LDH) activity was determined within the cardiac cell medium (PBS) using LDH-L kit (Thermo Trace, Melbourne, Australia). […]

heart cells = details: maximum protection, WO 2013/003445; cited from earlier work

**Q.** Which “CK Reduction” value (rat primary heart cells [1]; sodium alginate 0, TPEN 0.3 μM) does the source give for `c1ccc(CN(CCN(Cc2ccccn2)Cc2ccccn2)Cc2ccccn2)nc1` [TPEN, N,N,N′,N′-tetrakis-(2-pyridylmethyl)-ethylenediamine] here?
**A.** The value was 46.6%.

**Q.** And the “Mean (CK released from rat heart cells)” value (rat primary heart cells [1]; sodium alginate 0, TPEN 0.3 μM)?
**A.** The value was 0.0411.

**Q.** And the “CK Reduction” value (rat primary heart cells [1]; sodium alginate 0, TPEN 1 μM)?
**A.** Its value is 14.3%.

**Q.** What about the “Mean (CK released from rat heart cells)” value (rat primary heart cells [1]; sodium alginate 0, TPEN 1 μM) of the same compound?
**A.** Its value is 0.0643.

**Q.** And the “LDH Reduction” value (rat primary heart cells [2]; sodium alginate 0, TPEN 0.3 μM)?
**A.** Its value is 39.5%.

**Q.** And the “Mean (LDH released from rat heart cells)” value (rat primary heart cells [2]; sodium alginate 0, TPEN 0.3 μM)?
**A.** Its value is 0.0409.

**Q.** What about the “LDH Reduction” value (rat primary heart cells [2]; sodium alginate 0, TPEN 1 μM) of the same compound?
**A.** The value was 10.0%.

**Q.** What about the “Mean (LDH released from rat heart cells)” value (rat primary heart cells [2]; sodium alginate 0, TPEN 1 μM) of the same compound?
**A.** The value was 0.0647.

**Q.** What about the “protection from hypoxia stress injury” value (heart cells) of the same compound?
**A.** The value was at most 70%.
